Measured values published in article PMC5041076, “Ilex kaushue and Its Bioactive Component 3,5-Dicaffeoylquinic Acid Protected Mice from Lipopolysaccharide-Induced Acute Lung Injury” (Scientific Reports, 2016).
Where two headings read alike, the source gives them in different places.

Assays:
[1] = test system: fMLF/CB-activated neutrophils; assay: O2.- generation in fMLF/CB-activated neutrophils (ferricytochrome c reduction); format: cell-based, human
Experimental: (§1) All assays were performed as described previously[58],[59]. Neutrophils isolated from the blood of healthy volunteers (20–30 years old) were resuspended in a Ca^2+-free HBSS buffer (pH 7.4) at 4 °C before use. O2^.− generation was measured based on reduction of ferricytochrome c. In brief, after supplementation with 0.5 mg/ml ferricytochrome c and 1 mM Ca^2+, neutrophils were equilibrated at 37 °C for 2 min and incubated with the specified drugs for 5 min. Neutrophils were activated using 30 nM fMLF or 100 nM LTB4 for 10 min after addition of cytochalasin B (CB, 1 μg/mL) for 3 min. Changes in absorbance concomitant with reduction of ferricytochrome c at 550 nm were continuously monitored. For elastase release, neutrophils (6 × 10^5 cells/mL) were mixed with methoxysuccinyl-Ala-Ala-Pro-Val-pNA (100 μM) substrate at 37 °C for 5 min. […] Inhibition of superoxide generation and elastase release were calculated in keeping with previous reports.

[2] = biological target: T1, Human cathepsin G (Homo sapiens, UniProt P08311); assay: Serine protease enzyme inhibition assay, cathepsin G; format: biochemical; conditions: mean ± S.E.M. (n ≥ 3)
T1 construct: purchased Enzo BML-SE283
T1 sequence (P08311 21-255): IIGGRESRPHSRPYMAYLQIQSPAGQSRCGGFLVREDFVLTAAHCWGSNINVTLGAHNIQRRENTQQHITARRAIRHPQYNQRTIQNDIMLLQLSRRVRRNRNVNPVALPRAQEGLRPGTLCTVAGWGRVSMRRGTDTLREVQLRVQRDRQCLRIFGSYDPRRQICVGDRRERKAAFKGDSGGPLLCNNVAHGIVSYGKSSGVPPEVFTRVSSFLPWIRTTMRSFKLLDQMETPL

[3] = biological target: T2, Human neutrophil elastase (Homo sapiens, UniProt P08246); assay: Serine protease enzyme inhibition assay, HNE; format: biochemical; conditions: for IC50: enzyme assay, mean ± S.E.M. (n ≥ 3), read-out: IC50 HNE
T2 construct: purchased Enzo BML-SE284
T2 sequence (P08246 30-267): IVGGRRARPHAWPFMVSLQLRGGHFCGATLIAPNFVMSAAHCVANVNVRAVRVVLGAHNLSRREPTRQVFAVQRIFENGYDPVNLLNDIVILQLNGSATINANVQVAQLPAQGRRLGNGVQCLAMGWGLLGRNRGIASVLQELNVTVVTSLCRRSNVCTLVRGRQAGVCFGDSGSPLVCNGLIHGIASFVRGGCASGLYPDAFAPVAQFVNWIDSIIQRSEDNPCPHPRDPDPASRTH

[4] = biological target: T3, Bovine chymotrypsin (Bos taurus, UniProt P00766); assay: Serine protease enzyme inhibition assay, chymotrypsin; format: biochemical; conditions: mean ± S.E.M. (n ≥ 3)
T3 construct: purchased Sigma-Aldrich C4129

[5] = test system: fMLF/CB-activated neutrophils; assay: Elastase release in fMLF/CB-activated neutrophils; format: cell-based; conditions: for IC50: read-out: IC50 HNE (NE activity / elastase release)
Experimental: as §1

[6] = biological target: T4, Human proteinase 3 (Homo sapiens, UniProt P24158); assay: Serine protease enzyme inhibition assay, proteinase 3; format: biochemical; conditions: mean ± S.E.M. (n ≥ 3)
T4 construct: purchased Merk 539483
T4 sequence (P24158 28-256): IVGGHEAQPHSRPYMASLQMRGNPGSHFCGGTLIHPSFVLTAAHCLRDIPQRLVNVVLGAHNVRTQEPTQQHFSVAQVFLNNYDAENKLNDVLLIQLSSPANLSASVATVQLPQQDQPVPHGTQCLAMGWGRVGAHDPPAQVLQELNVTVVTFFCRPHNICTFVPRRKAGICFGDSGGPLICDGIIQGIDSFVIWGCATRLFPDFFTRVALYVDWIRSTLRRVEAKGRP

[7] = biological target: Human thrombin (Homo sapiens, UniProt P00734); assay: Serine protease enzyme inhibition assay, thrombin
[8] = Neutrophil, fMLF/CB-activated human neutrophils
[9] = fMLF/CB-activated human neutrophils
[10] = read-out: IC50 Thrombin, enzyme assay, mean ± S.E.M. (n ≥ 3)

| SMILES | IC50 [1, 8] | efficacy relative to ursolic acid ([1]; fMLF-induced neutrophils) | IC50 O2^.− generation [1, 9] | IC50 [2] | IC50 [3] | selectivity of inhibitory effect among serine proteases ([3]; five serine proteases examined) | IC50 [4] | IC50 ([5]; Homo sapiens, Neutrophil) | IC50 HNE (NE activity / elastase release) [5, 9] | IC50 [6] | IC50 [7] | IC50 [1, 9] | IC50 [5, 9] | IC50 [7, 10] |
| --- | --- | --- | --- | --- | --- | --- | --- | --- | --- | --- | --- | --- | --- | --- |
| CC1=C(C)C2C3=CCC4[C@@]5(C)CC[C@H](O)C(C)(C)C5CC[C@@]4(C)[C@]3(C)CC[C@@]2(C(=O)O)CC1 (some centres unmarked) [Compound 15-2, sanguisorbigenin] | 0.26 ± 0.1 µM | 5 fold | good inhibitory effects | > 30 µM | 24.7 ± 0.48 µM | non-selective inhibitory effects | 11.4 ± 0.2 µM | 0.2 ± 0.02 µM | good inhibitory effects | 14.8 ± 0.59 µM | 11.8 ± 2.2 µM | – | – | – |
| C[C@@H]1O[C@@H](O[C@H]2[C@H](OC(=O)[C@]34CC[C@@H](C)[C@@](C)(O)[C@H]3C3=CC[C@@H]5[C@@]6(C)CC[C@H](O[C@@H]7OC[C@H](O)[C@H](O[C@@H]8O[C@H](CO)[C@@H](O)[C@H](O)[C@H]8O)[C@H]7O[C@@H]7O[C@@H](C)[C@H](O)[C@@H](O)[C@H]7O)C(C)(C)[C@@H]6CC[C@@]5(C)[C@]3(C)CC4)O[C@H](CO)[C@@H](O)[C@@H]2O)[C@H](O)[C@H](O)[C@H]1O [Compound 15] | – | – | – | > 30 µM | > 30 µM | – | > 30 µM | – | – | > 30 µM | – | > 10 µM | 7.99 ± 1.18 µM | > 30 µM |
| N#C/C=C1/C=C[C@@H](O)C[C@H]1O[C@@H]1O[C@H](CO)[C@@H](O)[C@H](O)[C@H]1O [Compound 18, menisdaurin] | – | – | – | > 30 µM | > 30 µM | – | > 30 µM | – | – | > 30 µM | – | > 10 µM | > 10 µM | > 30 µM |
| N#CC=C1C=CC(O)CC1OC1OC(CO)C(O)C(O)C1O (centres unmarked) [Compound 19, menisdaurin F] | > 10 µM | – | – | > 30 µM | > 30 µM | – | > 30 µM | > 10 µM | – | > 30 µM | > 30 µM | – | – | – |
